The target in assay [1] is T1, Human immunodeficiency virus type 1 integrase (Human immunodeficiency virus 1, UniProt Q7ZJM1). The experiment in a line: Inhibition of wild type HIV1 integrase 3' processing step.
For assay [2], the target named is T2, Human immunodeficiency virus type 1 integrase (Human immunodeficiency virus 1, UniProt Q7ZJM1, C130A). The experiment in a line: Inhibition of HIV1 integrase C130A mutant strand transfer step.
Assay [3] has as its target T3, Human immunodeficiency virus type 1 integrase (Human immunodeficiency virus 1, UniProt Q7ZJM1, C130S). The experiment in a line: Inhibition of HIV1 integrase C130S mutant 3' processing step.
Assay [4] has as its target T1, Human immunodeficiency virus type 1 integrase. The experiment in a line: Inhibition of wild type HIV1 integrase strand transfer step.
The target of assay [5] is T2, Human immunodeficiency virus type 1 integrase. The experiment in a line: Inhibition of mutant HIV1 integrase C130A mutant 3' processing step.
In assay [6] the target is Human immunodeficiency virus type 1 integrase (Human immunodeficiency virus 1, UniProt Q7ZJM1, C280S/F185K). The experiment in a line: Inhibition of soluble HIV1 integrase F185K/C280S mutant strand transfer step.
Human immunodeficiency virus type 1 integrase (Human immunodeficiency virus 1, UniProt Q7ZJM1, C280S/F185K), sequence (Q7ZJM1 entry or part of it C280S/F185K): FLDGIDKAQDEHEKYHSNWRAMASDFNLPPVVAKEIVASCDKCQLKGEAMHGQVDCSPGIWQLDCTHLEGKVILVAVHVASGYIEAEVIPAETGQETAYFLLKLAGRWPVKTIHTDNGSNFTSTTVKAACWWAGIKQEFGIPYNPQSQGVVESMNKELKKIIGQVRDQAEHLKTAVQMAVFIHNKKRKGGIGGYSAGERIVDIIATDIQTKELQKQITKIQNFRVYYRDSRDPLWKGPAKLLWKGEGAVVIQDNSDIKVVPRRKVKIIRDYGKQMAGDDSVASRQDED
Assay [7] addresses T3, Human immunodeficiency virus type 1 integrase. The experiment in a line: Inhibition of HIV1 integrase C130S mutant strand transfer step.
For assay [8], the target named is Human immunodeficiency virus type 1 integrase (Human immunodeficiency virus 1, UniProt Q7ZJM1, C280S/F182K). The assay is described as follows: Inhibition of soluble HIV1 integrase F182K/ C280S mutant 3' processing step.

pIC50: −log10 of the molar value.

In general, pIC50 refers to the negative decadic logarithm of the IC50, by convention in mol/L. Read a high pIC50 as a low IC50.

T3 sequence (Q7ZJM1 entry or part of it C130S): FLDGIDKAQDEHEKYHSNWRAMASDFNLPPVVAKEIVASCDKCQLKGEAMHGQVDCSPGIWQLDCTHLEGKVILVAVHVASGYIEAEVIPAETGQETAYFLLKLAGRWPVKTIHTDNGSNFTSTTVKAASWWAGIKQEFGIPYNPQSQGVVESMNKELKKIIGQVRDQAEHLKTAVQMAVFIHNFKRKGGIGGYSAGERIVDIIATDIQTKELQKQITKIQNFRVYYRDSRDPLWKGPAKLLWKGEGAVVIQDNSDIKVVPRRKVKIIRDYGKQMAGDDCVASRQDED
T1 sequence (Q7ZJM1 whole entry): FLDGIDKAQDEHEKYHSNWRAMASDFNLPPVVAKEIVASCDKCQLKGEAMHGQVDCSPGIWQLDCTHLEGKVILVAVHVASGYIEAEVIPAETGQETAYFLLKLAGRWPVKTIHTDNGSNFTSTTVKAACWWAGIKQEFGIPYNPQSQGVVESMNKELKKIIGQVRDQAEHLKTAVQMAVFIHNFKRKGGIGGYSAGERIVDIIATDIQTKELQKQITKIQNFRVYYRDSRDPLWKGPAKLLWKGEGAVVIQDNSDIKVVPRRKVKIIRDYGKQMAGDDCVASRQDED
T2 sequence (Q7ZJM1 entry or part of it C130A): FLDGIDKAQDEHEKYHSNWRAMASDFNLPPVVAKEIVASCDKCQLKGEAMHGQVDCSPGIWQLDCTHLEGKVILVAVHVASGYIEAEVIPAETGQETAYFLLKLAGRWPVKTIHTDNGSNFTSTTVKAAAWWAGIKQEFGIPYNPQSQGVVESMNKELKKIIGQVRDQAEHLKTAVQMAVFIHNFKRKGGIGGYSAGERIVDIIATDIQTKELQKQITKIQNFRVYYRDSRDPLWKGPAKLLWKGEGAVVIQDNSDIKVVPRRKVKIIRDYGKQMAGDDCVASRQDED

In the case of `CC[C@H](C)[C@H](NC(=O)[C@H](CC(C)C)NC(=O)[C@H](CCC(N)=O)NC(=O)[C@H](CCC(=O)O)NC(=O)[C@@H](NC(=O)[C@@H](NC(=O)[C@H](CCC(N)=O)NC(=O)[C@H](CC(N)=O)NC(=O)[C@@H](NC(=O)[C@H](CC(C)C)NC(=O)[C@@H](N)CCC(=O)O)C(C)C)[C@@H](C)CC)[C@@H](C)CC)C(=O)N[C@@H](CCCCN)C(=O)N[C@@H](CCCCN)C(=O)N[C@@H](CCC(=O)O)C(=O)N[C@@H](CCCCN)C(=O)N[C@H](C(=O)N[C@@H](Cc1ccc(O)cc1)C(=O)N[C@@H](CC(C)C)C(=O)N[C@@H](C)C(=O)N[C@@H](Cc1c[nH]c2ccccc12)C(=O)O)C(C)C`, the pIC50 in assay [1] is 4.82; in assay [2], 4.82; in assay [3] it was 3.87; in assay [4] it was 4.85; in assay [5], 4.35; in assay [6], 4.08. Besides, the pIC50 in assay [7] was 5.15; in assay [8], 3.95.
For the compound `CC[C@H](C)[C@H](NC(=O)[C@H](Cc1c[nH]c2ccccc12)NC(=O)[C@@H](NC(=O)[C@H](C)NC(=O)[C@H](CCC(N)=O)NC(=O)[C@H](Cc1c[nH]c2ccccc12)NC(=O)[C@H](Cc1ccc(O)cc1)NC(=O)[C@H](CCC(=O)O)NC(=O)[C@@H](NC(=O)[C@H](Cc1c[nH]c2ccccc12)NC(=O)[C@H](Cc1c[nH]c2ccccc12)NC(=O)[C@@H](NC(=O)[C@H](CCC(=O)O)NC(=O)[C@H](Cc1c[nH]c2ccccc12)NC(=O)[C@@H](NC(=O)[C@@H](N)CCC(=O)O)[C@@H](C)O)[C@@H](C)O)[C@@H](C)O)[C@@H](C)O)C(=O)N1CCC[C@H]1C(=O)N[C@@H](CCC(=O)O)C(=O)N[C@@H](Cc1c[nH]c2ccccc12)C(=O)N[C@@H](CCC(=O)O)C(=O)O`, the pIC50 is 5.22 in assay [1]; 5.30 in assay [2]; 3.90 in assay [3]; 5.70 in assay [4]; 4.60 in assay [5]; 5.05 in assay [6]. Further, the figures for the negative-log IC50 (pIC50) in assay [7] and in assay [8] were 4.57 and 4.89, respectively.
As to `CC[C@H](C)[C@H](NC(=O)[C@H](CO)NC(=O)[C@H](CCC(=O)O)NC(=O)[C@@H](NC(=O)[C@@H](NC(=O)[C@@H](NC(=O)[C@H](CCCCN)NC(=O)[C@H](CCC(N)=O)NC(=O)[C@@H](NC(=O)[C@H](C)NC(=O)[C@H](CCC(=O)O)NC(=O)[C@@H](NC(=O)[C@H](CC(C)C)NC(=O)[C@H](CCC(N)=O)NC(=O)[C@@H](N)CCCCN)[C@@H](C)O)C(C)C)[C@@H](C)CC)[C@@H](C)O)[C@@H](C)O)C(=O)N[C@H](C(=O)N[C@H](C(=O)N[C@@H](Cc1c[nH]c2ccccc12)C(=O)NCC(=O)N[C@@H](CCCCN)C(=O)O)[C@@H](C)CC)C(C)C`, the pIC50 was 5.15 in assay [1]; 5.00 in assay [2]; 4.54 in assay [3]; 5.40 in assay [4]; 4.82 in assay [5]; 4.51 in assay [6]. Further, the pIC50 in assay [7] was 5.70; in assay [8], 4.29.
For the compound `CC[C@H](C)C(NC(=O)[C@H](CCC(=O)O)NC(=O)[C@H](CC(C)C)NC(=O)[C@H](CC(=O)O)NC(=O)[C@H](CO)NC(=O)CNC(=O)[C@@H](NC(=O)[C@H](Cc1ccc(O)cc1)NC(=O)[C@H](CC(C)C)NC(=O)[C@H](CC(=O)O)NC(=O)[C@H](CC(=O)O)NC(=O)[C@H](CCSC)NC(=O)[C@H](Cc1ccc(O)cc1)NC(=O)[C@H](CCC(N)=O)NC(=O)[C@H](Cc1ccc(O)cc1)NC(=O)[C@@H](NC(=O)[C@@H](NC(=O)[C@@H](NC(=O)[C@H](CC(=O)O)NC(=O)[C@@H]1CCCN1)[C@@H](C)CC)C(C)C)[C@@H](C)CC)C(C)C)C(=O)O` (stereo not given in full), the pIC50 in assay [1] is 5.22; in assay [2], 5.30; in assay [3] it was 4.39; in assay [4], 5.00; in assay [5], 4.70; in assay [6] it was 4.64. Moreover, the pIC50 in assay [7] is 5.70; in assay [8] it was 4.55.
With `CC[C@H](C)[C@H](NC(=O)CNC(=O)[C@H](CC(C)C)NC(=O)[C@H](C)NC(=O)[C@H](Cc1ccc(O)cc1)NC(=O)[C@H](CCC(N)=O)NC(=O)[C@H](CO)NC(=O)[C@H](CC(=O)O)NC(=O)[C@@H](NC(=O)[C@@H](NC(=O)[C@@H](NC(=O)[C@H](CC(N)=O)NC(=O)[C@@H](NC(=O)[C@H](CCC(=O)O)NC(=O)[C@H](CC(C)C)NC(=O)CNC(=O)[C@H](CO)NC(=O)[C@H](CC(=O)O)NC(=O)[C@H](CCC(N)=O)NC(=O)[C@@H](N)CC(C)C)C(C)C)[C@@H](C)CC)C(C)C)[C@@H](C)O)C(=O)O`, the pIC50 in assay [1] is 4.96; in assay [2], 4.70; in assay [3], 4.74; in assay [4], 5.70; in assay [5], less than 3.78; in assay [6] it was 4.44. For the same compound, the pIC50 in assay [7] was 5.40; in assay [8], less than 3.78.

Values taken from ChEMBL document CHEMBL1149523, “Inhibition of HIV-1 integrase activity by synthetic peptides derived from the HIV-1 HXB2 Pol region of the viral genome” (Bioorg Med Chem Lett, 2006).
